≈ marks a conversion by molar mass, not a printed value.
Experiments:
Assay in all cases: in vitro antibacterial evaluation, MIC by broth dilution
Format in all cases: cell-based
[1] = test system: Escherichia coli
Procedure, shortened: (§1)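 Inoculum 5×10^5 CFU/mL; concentrations 64 to 0.06 μg/mL; MIC defined as lowest inhibitory level. Conducted by broth dilution under NCCLS guidelines.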

[2] = test system: Staphylococcus sp.; conditions: broth dilution, 18 hours at 35° C.; for MIC Staphylococcus aureus (GC 1131): strain GC 1131
Procedure, shortened: as §1

[3] = test system: Streptococcus sp.; conditions: broth dilution, 18 hours at 35° C.
Procedure, shortened: as §1

[4] = test system: Enterococcus sp.; conditions: broth dilution, 18 hours at 35° C.
Procedure, shortened: as §1

MIC Escherichia coli (ATCC 25922) ([1]; strain ATCC 25922, 18 hours at 35° C.): >64 µg/mL
MIC Escherichia coli (GC 4559) ([1]; strain GC 4559, 18 hours at 35° C.): >64 µg/mL
MIC Escherichia coli (GC 4560) ([1]; strain GC 4560, 18 hours at 35° C.): 4 µg/mL (≈ 2.83 µM)
MIC Staphylococcus aureus (GC 1131) ([2]; inoculum 5×10^5 CFU/mL): 16 µg/mL (≈ 11.3 µM)
MIC Staphylococcus aureus (ATCC 29213) ([2]; strain ATCC 29213): 16 µg/mL (≈ 11.3 µM)
MIC Staphylococcus aureus (GC 1131) [2]: 16 µg/mL (≈ 11.3 µM)
MIC Staphylococcus aureus (GC 3051) ([2]; strain GC 3051): 16 µg/mL (≈ 11.3 µM)
MIC Staphylococcus aureus (GC 3053) ([2]; strain GC 3053): 16 µg/mL (≈ 11.3 µM)
MIC Staphylococcus aureus (GC 4541) ([2]; strain GC 4541): 8 µg/mL (≈ 5.66 µM)
MIC Staphylococcus aureus (GC 4542) ([2]; strain GC 4542): 16 µg/mL (≈ 11.3 µM)
MIC Staphylococcus aureus-SMITH (GC 4543) ([2]; strain GC 4543): 8 µg/mL (≈ 5.66 µM)
MIC Staphylococcus aureus (GC 4544) ([2]; strain GC 4544): 16 µg/mL (≈ 11.3 µM)
MIC Staphylococcus aureus (GC 4545) ([2]; strain GC 4545): 16 µg/mL (≈ 11.3 µM)
MIC Coagulase Negative Staphylococcus (GC 4547) ([2]; strain GC 4547): 8 µg/mL (≈ 5.66 µM)
MIC Coagulase Negative Staphylococcus (GC 4548) ([2]; strain GC 4548): 4 µg/mL (≈ 2.83 µM)
MIC Coagulase Negative Staphylococcus (GC 4549) ([2]; strain GC 4549): 8 µg/mL (≈ 5.66 µM)
MIC Coagulase Negative Staphylococcus (GC 4551) ([2]; strain GC 4551): 8 µg/mL (≈ 5.66 µM)
MIC Coagulase Negative Staphylococcus (GC 6257) ([2]; strain GC 6257): 4 µg/mL (≈ 2.83 µM)
MIC Staphylococcus aureus-SMITH (GC 4543) ([2]; strain SMITH GC 4543): 8 µg/mL (≈ 5.66 µM)
MIC Streptococcus agalactiae (GC 4564) ([3]; Streptococcus agalactiae (GC 4564)): 4 µg/mL (≈ 2.83 µM)
MIC Streptococcus pneumoniae (ATCC 6301) ([3]; Streptococcus pneumoniae (ATCC 6301)): 2 µg/mL (≈ 1.42 µM)
MIC Streptococcus pneumoniae (GC 1894) ([3]; Streptococcus pneumoniae (GC 1894)): 1 µg/mL (≈ 0.708 µM)
MIC Streptococcus pneumoniae (GC 4565) ([3]; Streptococcus pneumoniae (GC 4565)): 2 µg/mL (≈ 1.42 µM)
MIC Streptococcus pyogenes (GC 4563) ([3]; Streptococcus pyogenes (GC 4563)): 4 µg/mL (≈ 2.83 µM)
MIC Streptococcus pneumoniae (ATCC 6301) ([3]; strain ATCC 6301): 2 µg/mL (≈ 1.42 µM)
MIC Streptococcus pneumoniae (GC 1894) ([3]; strain GC 1894): 1 µg/mL (≈ 0.708 µM)
MIC Streptococcus pyogenes (GC 4563) ([3]; strain GC 4563): 4 µg/mL (≈ 2.83 µM)
MIC Streptococcus agalactiae (GC 4564) ([3]; strain GC 4564): 4 µg/mL (≈ 2.83 µM)
MIC Streptococcus pneumoniae (GC 4565) ([3]; strain GC 4565): 2 µg/mL (≈ 1.42 µM)
MIC Enterococcus avium (GC 4558) ([4]; Enterococcus avium (GC 4558)): 32 µg/mL (≈ 22.6 µM)
MIC Enterococcus faecalis (ATCC 29212) ([4]; Enterococcus faecalis (ATCC 29212)): 32 µg/mL (≈ 22.6 µM)
MIC Enterococcus faecalis (GC 2242) ([4]; Enterococcus faecalis (GC 2242)): 32 µg/mL (≈ 22.6 µM)
MIC Enterococcus faecalis (GC 2691) ([4]; Enterococcus faecalis (GC 2691)): 32 µg/mL (≈ 22.6 µM)
MIC Enterococcus faecalis (GC 3059) ([4]; Enterococcus faecalis (GC 3059)): 64 µg/mL (≈ 45.3 µM)
MIC Enterococcus faecalis (GC 4552) ([4]; Enterococcus faecalis (GC 4552)): 32 µg/mL (≈ 22.6 µM)
MIC Enterococcus faecalis (GC 4553) ([4]; Enterococcus faecalis (GC 4553)): 32 µg/mL (≈ 22.6 µM)
MIC Enterococcus faecalis (GC 4554) ([4]; Enterococcus faecalis (GC 4554)): 64 µg/mL (≈ 45.3 µM)
MIC Enterococcus faecalis (GC 6189) ([4]; Enterococcus faecalis (GC 6189)): 32 µg/mL (≈ 22.6 µM)
MIC Enterococcus faecium (GC 2243) ([4]; Enterococcus faecium (GC 2243)): 64 µg/mL (≈ 45.3 µM)
MIC Enterococcus faecium (GC 4556) ([4]; Enterococcus faecium (GC 4556)): 32 µg/mL (≈ 22.6 µM)
MIC Enterococcus faecium (GC 4557) ([4]; Enterococcus faecium (GC 4557)): 8 µg/mL (≈ 5.66 µM)
MIC Enterococcus faecalis (ATCC 29212) ([4]; strain ATCC 29212): 32 µg/mL (≈ 22.6 µM)
MIC Enterococcus faecalis (GC 2242) ([4]; strain GC 2242): 32 µg/mL (≈ 22.6 µM)
MIC Enterococcus faecium (GC 2243) ([4]; strain GC 2243): 64 µg/mL (≈ 45.3 µM)
MIC Enterococcus faecalis (GC 2691) ([4]; strain GC 2691): 32 µg/mL (≈ 22.6 µM)
MIC Enterococcus faecalis (GC 3059) ([4]; strain GC 3059): 64 µg/mL (≈ 45.3 µM)
MIC Enterococcus faecalis (GC 4552) ([4]; strain GC 4552): 32 µg/mL (≈ 22.6 µM)
MIC Enterococcus faecalis (GC 4553) ([4]; strain GC 4553): 32 µg/mL (≈ 22.6 µM)
MIC Enterococcus faecalis (GC 4554) ([4]; strain GC 4554): 64 µg/mL (≈ 45.3 µM)
MIC Enterococcus faecium (GC 4556) ([4]; strain GC 4556): 32 µg/mL (≈ 22.6 µM)
MIC Enterococcus faecium (GC 4557) ([4]; strain GC 4557): 8 µg/mL (≈ 5.66 µM)
MIC Enterococcus avium (GC 4558) ([4]; strain GC 4558): 32 µg/mL (≈ 22.6 µM)
MIC Enterococcus faecalis (GC 6189) ([4]; strain GC 6189): 32 µg/mL (≈ 22.6 µM)
Compound: COc1cccc(C2OC3C(OC4C(CO)OC(Oc5ccc(CC6NC(=O)C(C(C)c7ccccc7)NC(=O)CNC(=O)C(CO)NC(=O)C(C(O)C7CNC(=N)N7C7OC(CO)C(O)C(O)C7O)NC(=O)C(C(O)C7CNC(=N)N7)NC6=O)cc5)C(O)C4O)OC(CO)C(O)C3O2)c1 (single isomer, unassigned) [Example 137b, Cyclo[glycyl-β-methylphenylalanyl-O-[4-O-[2,3-O-(3-methoxybenzylidene)hexopyranosyl]-hexopyranosyl]tyrosyl-3-(2-iminoimidazolidin-4-yl)seryl-3-(3-hexopyranosyl-2-iminoimidazolidin-4-yl)serylseryl]]
MIC Staphylococcus haemolyticus (GC 4546) ([2]; strain GC 4546): 8 µg/mL (≈ 5.66 µM)
